Like-named read-outs stand apart in the source and are kept apart here.
What was measured:
[1] = target: T1, human glutathione S-transferase A1-1 (GSTA1-1) (Homo sapiens, UniProt P08263); assay: CDNB assay of GST activity and inhibition, GST A1-1; type: biochemical; conditions: second value of the cell GSTP1-1/GSTA1-1, 20 nM GST
T1 construct: made in house; host or cells: E. coli
T1 sequence (P08263 1-222): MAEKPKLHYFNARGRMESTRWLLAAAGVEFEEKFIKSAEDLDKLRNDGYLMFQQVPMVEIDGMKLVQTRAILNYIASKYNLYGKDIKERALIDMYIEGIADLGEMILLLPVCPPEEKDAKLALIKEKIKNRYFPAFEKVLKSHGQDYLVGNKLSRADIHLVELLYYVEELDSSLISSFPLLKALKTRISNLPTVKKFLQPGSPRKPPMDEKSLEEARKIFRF
Procedure: (§1) GST isozymes. […] The enzyme was incubated with 10 mM dithiothreitol to ensure complete reduction of cysteine residues, followed by extensive dialysis to remove the reducing agent. […] Plasmodium GST (pGST) was a gift from Dr. Katja Becker (Justus Liebig University of Giessen), and murine GSTP and GSTA were gifts from Dr. Dave Eaton (University of Washington). Except where otherwise stated (i.e. testing of pGST in Example 6.4.5 and testing of murine GSTs in Example 6.4.7), GST isozymes tested were from human.
(§2) GST assays. Assays of GST activity and inhibition were performed with chloro-2,4-dinitrobenzene (CDNB) as the electrophilic substrate. Except where otherwise stated, GST concentration was 20 nM. […] Rates were determined by measuring absorption at 340 nm (λmax of glutathione-dinitrobenzene) for 1 minute on a Beckman DU 7400 spectrophotometer. For IC50 determinations, assays were performed at inhibitor concentrations ranging over at least […] (from 100-fold above the IC50 to 100-fold below). Data were fit to a sigmoidal dose-response function using GraphPad Prism to determine the 50% inhibitory concentration.

[2] = target: T2, human glutathione S-transferase P1-1 (GSTP1-1) (Homo sapiens, UniProt P09211); assay: CDNB assay of GST activity and inhibition, GST P1-1; type: biochemical; conditions: first value of the cell GSTP1-1/GSTA1-1; CDNB assay, 20 nM GST
T2 construct: made in house; host or cells: E. coli
Procedure: as §1, §2

murine GSTP = target: T3, murine GSTP (Mus musculus, UniProt P19157); assay: CDNB assay, murine GSTP; type: biochemical
T3 construct: gift from Dr. Dave Eaton (University of Washington)
Procedure: as §1, §2

GSTP1-1 = target: T4, GSTP1-1 (Homo sapiens, UniProt P09211); assay: GSH conjugation assay, absorbance changes at 270 nm, GSTP1-1; type: biochemical; conditions: absorbance at 270 nm
T4 construct: made in house; host or cells: E. coli
From the text: (§3) Since EA is known to be enzymatically conjugated to GSH by GSTs, these bivalent inhibitors might be predicted to be potential substrates for GSTA1-1 or GSTP1-1, such that they would also be catalytically conjugated with GSH.

GSTA1-1 = target: T5, GSTA1-1 (Homo sapiens, UniProt P08263); assay: GSH conjugation assay, absorbance changes at 270 nm, GSTA1-1; type: biochemical; conditions: absorbance at 270 nm
T5 construct: made in house; host or cells: E. coli
T5 sequence (P08263 1-222): T1 sequence (P08263 1-222)
From the text: as §3

Plasmodium GST (pGST) = target: T6, Plasmodium GST (pGST) (Plasmodium falciparum, UniProt Q8ILQ7); assay: CDNB assay, Plasmodium GST; type: biochemical
T6 construct: gift from Dr. Katja Becker (Justus Liebig University of Giessen)
T6 sequence (Q8ILQ7 1-211): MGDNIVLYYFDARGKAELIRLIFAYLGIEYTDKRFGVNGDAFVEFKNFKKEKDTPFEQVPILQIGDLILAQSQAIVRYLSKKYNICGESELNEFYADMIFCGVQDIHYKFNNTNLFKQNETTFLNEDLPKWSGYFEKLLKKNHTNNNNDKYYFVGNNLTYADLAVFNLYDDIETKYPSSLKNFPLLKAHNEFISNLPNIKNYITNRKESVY
Procedure: as §1, §2
The IC50 values for pGST were determined for the bivalent compounds from Tables III and IV using the CDNB assay.

[3] = test system: chloroquine resistant parasites AN143 and INDO21; assay: Isobologram analysis with chloroquine; type: cell-based, Plasmodium falciparum
Procedure: (§4) A single dose of compound IVg^ was added to ring stages of chloroquine resistant Plasmodium falciparum strain Dd2 and incubated for 48 hours. […] An isobologram analysis was performed in two different chloroquine resistant parasites comparing IVg^ with chloroquine (AN143 with a PNG/South America genotype and INDO21 with the Indonesia genotype).

[4] = test system: chloroquine resistant Plasmodium falciparum strain Dd2; assay: Parasite growth inhibition, ring stages, 48 hours; type: cell-based; conditions: single dose, strain Dd2, 48 hours
Procedure: as §4

[5] = test system: human kidney 293 fibroblasts overexpressing human GST P1-1; assay: Cell killing by hypericin photodynamic treatment, GST P1-1 overexpressing cells; type: cell-based; conditions: GSTP cells
Procedure: (§5) Cells used in the assay were human kidney 293 fibroblasts transfected with the IRES vector plus and minus the coding region for human GST P1-1. Cells were cultured in DMEM supplemented with 10% FBS and 1% penicillin-streptomycin and maintained at 37° C. and 5% CO2.
(§6) Once the cells reached 80% confluency, the original media was removed and replaced with either (a) fresh media alone; (b) fresh media containing 1 uM hypericin (a porphyrin analogue employed in photodynamic cancer therapy), (c) the desired concentration of GST inhibitor IVg^, and (d) 1 μM hypericin plus the inhibitor 1 μM IVg^. The cells were incubated for a further 24 hours, in the dark, to allow the hypericin to be incorporated. The media from each plate was then removed and placed into a corresponding 15 ml centrifuge tube. This media is saved to monitor the “floater” cells that may have sloughed off during manipulations and treatment. The attached cells were washed two times with 1×PBS and fresh media is added back to the plates. The plates which were incubated overnight in the presence of hypericin were overlayed with DMEM without the phenol red indicator dye or 1×PBS supplemented with 10% FBS. […]
(§7) Following light treatment, cells were trypsinized, removed to their corresponding 15 ml tubes and maintained on ice until analyzed via flow cytometry.

[6] = test system: human kidney 293 fibroblasts; assay: IC50 of the bivalent inhibitor alone in the cell line; type: cell-based; conditions: +/−0.2 SD, read-out: IC50 of inhibitor for the cells
Procedure: as §5
Once the cells reached 80% confluency, the original media was removed and replaced with either (a) fresh media alone; (b) fresh media containing 1 uM hypericin (a porphyrin analogue employed in photodynamic cancer therapy), (c) the desired concentration of GST inhibitor IVg^, and (d) 1 μM hypericin plus the inhibitor 1 μM IVg^. The cells were incubated for a further 24 hours, in the dark, to allow the hypericin to be incorporated. The media from each plate was then removed and placed into a corresponding 15 ml centrifuge tube. This media is saved to monitor the “floater” cells that may have sloughed off during manipulations and treatment. The attached cells were washed two times with 1×PBS and fresh media is added back to the plates. The plates which were incubated overnight in the presence of hypericin were overlayed with DMEM without the phenol red indicator dye or 1×PBS supplemented with 10% FBS.
as §7

[7] = test system: human kidney 293 fibroblasts transfected with the IRES vector (no GST P1-1); assay: Cell killing by hypericin photodynamic treatment, IRES vector control cells; type: cell-based
Procedure: as §5, §6, §7

[8] = target: T1, human glutathione S-transferase A1-1 (GSTA1-1); conditions: from the prior art (Ploemen et al.); cited from earlier work
[9] = CDNB assay, read-out: IC50 pGST
[10] = 1 μM inhibitor + 1 μM hypericin + 590 nm light
[11] = 1 uM hypericin + 590 nm light, no inhibitor

T2 sequence (P09211 2-210 limits assumed): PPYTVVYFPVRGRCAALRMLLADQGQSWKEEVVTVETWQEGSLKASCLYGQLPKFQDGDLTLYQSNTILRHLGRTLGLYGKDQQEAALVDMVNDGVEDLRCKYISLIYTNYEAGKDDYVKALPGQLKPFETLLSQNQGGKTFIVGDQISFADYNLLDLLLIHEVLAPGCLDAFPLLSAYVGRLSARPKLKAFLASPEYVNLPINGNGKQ
T3 sequence (P19157 2-210 limits assumed): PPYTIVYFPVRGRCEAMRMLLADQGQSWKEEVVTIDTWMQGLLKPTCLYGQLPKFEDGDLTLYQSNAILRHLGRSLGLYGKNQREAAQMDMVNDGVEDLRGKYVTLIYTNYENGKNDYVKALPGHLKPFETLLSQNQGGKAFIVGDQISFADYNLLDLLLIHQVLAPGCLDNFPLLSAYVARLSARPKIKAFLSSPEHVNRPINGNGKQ
T4 sequence (P09211 2-210 limits assumed): as the sequence (P09211 2-210 limits assumed) above

Row | Structure (SMILES) | IC50 [1] [nM] | IC50 [2] [nM] | IC50 (murine GSTP) [nM] | GSH conjugation by GSTA1-1 (GSTA1-1) | IC50 (Plasmodium GST (pGST); [9]) [nM] | also measured
1 | C=C(CC)C(=O)c1ccc(OCC(=O)NCc2cccc(CNC(=O)COc3ccc(C(=O)C(=C)CC)c(Cl)c3Cl)c2)c(Cl)c1Cl [IVc^] | 25 | 995 | 990 | – | – | –
2 | C=C(CC)C(=O)c1ccc(OCC(=O)NCCCCCC(=O)NCc2cc(CNC(=O)CCCCCNC(=O)COc3ccc(C(=O)C(=C)CC)c(Cl)c3Cl)cc(C(N)=O)c2)c(Cl)c1Cl [IVg] | 40.2 | 46.1 | – | no GSH conjugation | ~3300 | GSH conjugation by GSTP1-1 (GSTP1-1): no GSH conjugation
3 | C=C(CC)C(=O)c1ccc(OCC(=O)NCCCCCC(=O)NCc2cccc(CNC(=O)CCCCCNC(=O)COc3ccc(C(=O)C(=C)CC)c(Cl)c3Cl)c2)c(Cl)c1Cl [IVg^] | 64 | 27 | 18 | – | ~1500 | synergy with chloroquine [3]: No evidence of synergy; EC50 [4]: 412 nM; Mean % Cell Death [5, 10]: 22.53%; IC50 [6]: 1130 nM; Mean % Cell Death [7, 10]: 20.27%
4 | C=C(CC)C(=O)c1ccc(OCC(=O)NCCCC(=O)NCCCC(=O)NCCCC(=O)NCc2cc(CNC(=O)CCCNC(=O)CCCNC(=O)CCCNC(=O)COc3ccc(C(=O)C(=C)CC)c(Cl)c3Cl)cc(C(N)=O)c2)c(Cl)c1Cl [IVi] | 96.5 | 142 | – | – | – | IC50 (Plasmodium GST (pGST)): ~5500 nM
5 | C=C(CC)C(=O)c1ccc(OCC(=O)O)c(Cl)c1Cl [IVk*, ethacrynic acid, reference compound] | – | – | – | readily conjugated to GSH | – | IC50 [8]: 5000 nM
6 | Cc1cc(O)c2c(=O)c3c(O)cc(O)c4c5c(O)cc(O)c6c(=O)c7c(O)cc(C)c8c1c2c(c34)c(c78)c65 [hypericin, reference compound] | – | – | – | – | – | Mean % Cell Death [5, 11]: 11.27%; Mean % Cell Death [7, 11]: 24.63%
